# Reference: patent US9440952B2, “Compounds inhibiting leucine-rich repeat kinase enzyme activity” (Merck Sharp & Dohme Corp., priority 2013, dated 2016)
# What was measured:
# Type in all cases: biochemical
# [1] = target: T1, LRRK2(G2019S mutation, GST-LRRK2(amino acids 970-2527)) (Homo sapiens, UniProt Q5S007, G2019S); assay: LRRK2 Km ATP LanthaScreen Assay; conditions: read-out: LRRK2 IC50
# T1 construct: GST-LRRK2(amino acids 970-2527); GST (N); purchased Life Technologies Corporation
# Procedure, shortened: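 IC50 values are means of several runs in the Km-ATP LanthaScreen format, analysed by curve fitting of the LanthaScreen read-out.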
# [2] = target: T1, LRRK2(G2019S mutation, GST-LRRK2(amino acids 970-2527)); assay: LRRK2 5 mM ATP LanthaScreen Assay; conditions: mean IC50 of several tests
# Experimental: The data presented for the 5 mM and Km ATP LanthaScreen™ Assay represents mean IC50 values based on several test results and may have reasonable. deviations depending on the specific conditions and reagents used. Reagents for the LRRK2 5 mM and Km ATP LanthaScreen™ Assay were purchased from Life Technologies Corporation.
# LRRK2 5 mM ATP LanthaScreen™ Assay • a) 400 nl of a 1:2.15 serial dilution of test compound (98 μM top assay concentration) is spotted via Labcyte Echo to certain wells in a 384 well black, untreated plate. […] Results are analysed using Assay Data Analyzer.
# kinases (Table B) [3] = target: T2, kinases (Table B) (Homo sapiens, UniProt P28482); assay: Kinase selectivity, Z'-LYTE or Adapta assay platforms (Life Technologies); conditions: MAPK1 (ERK2); Z-LYTE; test conc 0.100 μM; read-out: percent inhibition MAPK1 (ERK2)
# T2 construct: purchased Life Technologies Corporation
# kinases (Table B) [4] = target: T3, kinases (Table B) (Homo sapiens, UniProt Q13627); assay: as above; conditions: DYRK1A; Z-LYTE; test conc 0.100 μM; read-out: percent inhibition DYRK1A
# T3 construct: purchased Life Technologies Corporation
# kinases (Table B) [5] = target: T4, kinases (Table B) (Homo sapiens, UniProt Q96GD4); assay: as above; conditions: AURKB (Aurora B); Z-LYTE; test conc 0.100 μM; read-out: percent inhibition AURKB (Aurora B)
# T4 construct: purchased Life Technologies Corporation
# kinases (Table B) [6] = assay: as above; conditions: test conc 0.100 μM
# [7] = Km ATP LanthaScreen, mean IC50 of several tests
# [8] = Km ATP LanthaScreen Assay, LRRK2 G2019S, mean IC50 values
# T1 sequence (Q5S007 970-2527 G2019S): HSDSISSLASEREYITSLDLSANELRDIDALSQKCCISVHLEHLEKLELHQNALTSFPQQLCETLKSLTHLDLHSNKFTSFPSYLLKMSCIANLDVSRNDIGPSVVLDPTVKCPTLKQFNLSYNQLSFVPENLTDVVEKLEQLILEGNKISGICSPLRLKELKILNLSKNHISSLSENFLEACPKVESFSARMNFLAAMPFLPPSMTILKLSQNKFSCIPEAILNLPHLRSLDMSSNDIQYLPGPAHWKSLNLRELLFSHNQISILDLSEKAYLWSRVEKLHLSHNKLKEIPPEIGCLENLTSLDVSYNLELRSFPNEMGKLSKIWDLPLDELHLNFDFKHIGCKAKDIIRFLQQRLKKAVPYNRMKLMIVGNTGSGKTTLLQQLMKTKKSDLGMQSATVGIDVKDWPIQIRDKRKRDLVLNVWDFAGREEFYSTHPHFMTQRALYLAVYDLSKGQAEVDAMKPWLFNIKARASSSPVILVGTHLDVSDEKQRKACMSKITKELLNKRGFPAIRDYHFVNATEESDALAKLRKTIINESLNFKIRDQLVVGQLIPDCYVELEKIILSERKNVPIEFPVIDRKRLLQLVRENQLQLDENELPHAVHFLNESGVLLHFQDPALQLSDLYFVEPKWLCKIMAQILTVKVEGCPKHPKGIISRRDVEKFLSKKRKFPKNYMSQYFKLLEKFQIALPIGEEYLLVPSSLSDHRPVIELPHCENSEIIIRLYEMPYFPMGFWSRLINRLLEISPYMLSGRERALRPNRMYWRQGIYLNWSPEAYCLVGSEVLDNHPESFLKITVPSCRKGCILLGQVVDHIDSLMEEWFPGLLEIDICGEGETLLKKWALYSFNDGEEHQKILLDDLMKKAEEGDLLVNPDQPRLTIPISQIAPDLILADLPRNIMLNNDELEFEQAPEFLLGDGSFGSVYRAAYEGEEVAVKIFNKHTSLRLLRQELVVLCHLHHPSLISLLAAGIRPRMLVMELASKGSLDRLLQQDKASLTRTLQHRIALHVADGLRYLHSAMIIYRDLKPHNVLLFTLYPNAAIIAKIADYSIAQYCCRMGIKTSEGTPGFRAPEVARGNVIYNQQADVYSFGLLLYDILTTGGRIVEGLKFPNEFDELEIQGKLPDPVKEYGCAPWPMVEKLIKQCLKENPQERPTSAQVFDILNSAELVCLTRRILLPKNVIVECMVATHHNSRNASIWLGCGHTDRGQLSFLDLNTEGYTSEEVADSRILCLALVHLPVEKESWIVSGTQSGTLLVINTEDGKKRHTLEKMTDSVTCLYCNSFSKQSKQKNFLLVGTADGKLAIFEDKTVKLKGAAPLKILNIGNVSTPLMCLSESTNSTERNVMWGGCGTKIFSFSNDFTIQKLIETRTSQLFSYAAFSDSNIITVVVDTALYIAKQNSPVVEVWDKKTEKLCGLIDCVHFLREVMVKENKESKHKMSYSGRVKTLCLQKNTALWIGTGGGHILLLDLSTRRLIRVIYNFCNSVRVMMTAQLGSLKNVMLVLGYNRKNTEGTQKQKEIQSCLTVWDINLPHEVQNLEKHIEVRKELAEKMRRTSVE
# T4 sequence (Q96GD4 whole entry): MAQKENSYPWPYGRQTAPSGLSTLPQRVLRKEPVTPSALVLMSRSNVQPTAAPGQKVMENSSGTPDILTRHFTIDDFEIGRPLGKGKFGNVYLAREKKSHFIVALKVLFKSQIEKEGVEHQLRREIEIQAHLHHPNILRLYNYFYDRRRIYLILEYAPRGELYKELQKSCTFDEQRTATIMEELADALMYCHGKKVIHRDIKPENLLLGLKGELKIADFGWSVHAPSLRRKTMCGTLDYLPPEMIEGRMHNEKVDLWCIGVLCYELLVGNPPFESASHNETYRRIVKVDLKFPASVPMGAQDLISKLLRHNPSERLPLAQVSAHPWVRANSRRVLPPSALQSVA
# T2 sequence (P28482 whole entry): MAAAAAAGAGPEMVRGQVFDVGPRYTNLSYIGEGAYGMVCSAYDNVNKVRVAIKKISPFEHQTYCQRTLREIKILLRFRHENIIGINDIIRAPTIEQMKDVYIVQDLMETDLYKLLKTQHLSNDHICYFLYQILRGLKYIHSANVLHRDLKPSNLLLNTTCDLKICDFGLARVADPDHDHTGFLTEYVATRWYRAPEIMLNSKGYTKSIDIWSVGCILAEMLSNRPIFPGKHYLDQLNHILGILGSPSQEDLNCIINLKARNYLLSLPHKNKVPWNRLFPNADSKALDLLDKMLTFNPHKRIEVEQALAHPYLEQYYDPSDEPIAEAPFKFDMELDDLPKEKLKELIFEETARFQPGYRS
SMILES,"IC50 [1, 7] [µM]",other results
Cn1cc(-c2ccc3[nH]nc(-c4ccnc(N5CC(F)C5)c4)c3c2)cn1 [Ex 376],< 0.0006,IC50 [2]: 0.023 µM
Oc1cc(-c2ccc3[nH]nc(-c4ccnc(N5CCC(O)CC5)c4)c3c2)ccn1 [Example 121],,"IC50 [1, 8]: 0.0014 µM; IC50 [2]: 0.016 µM"
CC(C)Oc1ccc2[nH]nc(-c3ccnc(N4CCC(O)CC4)c3)c2c1 [Example 285],0.0038,IC50 [2]: 0.015 µM
CC(C)Oc1ccc2[nH]nc(-c3ccnc(N4CCNC(=O)C4)c3)c2c1 [Example 311],< 0.0006,IC50 [2]: 0.014 µM
Cc1c(-c2ccc3[nH]nc(-c4ccnc(N5CCOCC5)c4)c3c2)cnn1C [Example 316],0.0021,IC50 [2]: 0.008 µM
Cn1cc(-c2ccc3[nH]nc(-c4ccnc(N5CCOCC5)c4)c3c2)cn1 [Example 321],< 0.0006,IC50 [2]: 0.012 µM
OCCc1ccc2[nH]nc(-c3ccnc(N4CCOCC4)c3)c2c1 [Example 333],0.03,
Clc1cnc(-c2ccc3[nH]nc(-c4ccnc(N5CCOCC5)c4)c3c2)nc1 [Example 334],0.052,
CCCc1cnc(-c2ccc3[nH]nc(-c4ccnc(N5CCOCC5)c4)c3c2)nc1 [Example 335],0.0054,
Cc1ccnc(-c2ccc3[nH]nc(-c4ccnc(N5CCOCC5)c4)c3c2)n1 [Example 336],0.033,
Fc1cnc(-c2ccc3[nH]nc(-c4ccnc(N5CCOCC5)c4)c3c2)nc1 [Example 337],0.042,
Cc1cnc(-c2ccc3[nH]nc(-c4ccnc(N5CCOCC5)c4)c3c2)nc1 [Example 338],0.0089,
COc1cnc(-c2ccc3[nH]nc(-c4ccnc(N5CCOCC5)c4)c3c2)nc1 [Example 339],0.022,
Cn1cc(-c2ccc3[nH]nc(-c4ccnc(N5CCOCC5)c4)c3c2)nn1 [Example 340],0.0011,
Cn1cnc(-c2ccc3[nH]nc(-c4ccnc(N5CCOCC5)c4)c3c2)c1 [Example 343],0.0049,
c1cc(-c2n[nH]c3ccc(-c4cn[nH]c4)cc23)cc(N2CCOCC2)n1 [Example 344],< 0.0006,
Cn1nccc1-c1ccc2[nH]nc(-c3ccnc(N4CCOCC4)c3)c2c1 [Example 345],0.018,
c1cc(-c2ccc3[nH]nc(-c4ccnc(N5CCOCC5)c4)c3c2)[nH]n1 [Example 346],< 0.0006,
OCc1cc2c(-c3ccnc(N4CCOCC4)c3)n[nH]c2cc1F [Example 347],0.038,
CC(C)(O)COc1ccc2[nH]nc(-c3ccnc(N4CCOCC4)c3)c2c1 [Example 348],0.014,
OCCc1cc2c(-c3ccnc(N4CCOCC4)c3)n[nH]c2cc1F [Example 349],0.027,
CC(O)Cc1cc2c(-c3ccnc(N4CCOCC4)c3)n[nH]c2cc1F (stereo not shown) [Example 350],0.076,
Fc1cc2[nH]nc(-c3ccnc(N4CCOCC4)c3)c2cc1-c1ccn[nH]1 [Example 351],0.0011,

SMILES,"IC50 [1, 7] [µM]",other results
CCOc1ccc2[nH]nc(-c3ccnc(NCCOC)c3)c2c1 [Example 354],0.0062,
CCOc1ccc2[nH]nc(-c3ccnc(NCCO)c3)c2c1 [Example 355],0.01,
CCOc1ccc2[nH]nc(-c3ccnc(N[C@@H](C)COC)c3)c2c1 [Example 356],0.01,
CCOc1ccc2[nH]nc(-c3ccnc(N[C@H](C)CO)c3)c2c1 [Example 357],0.0055,
CCOc1ccc2[nH]nc(-c3ccnc(N[C@@H](C)CO)c3)c2c1 [Example 358],0.016,
CCOc1ccc2[nH]nc(-c3ccnc(N4CC(OC)C4)c3)c2c1 [Example 359],0.015,
CCOc1ccc2[nH]nc(-c3ccnc(N4CCN(S(C)(=O)=O)CC4)c3)c2c1 [Example 360],< 0.0006,
CCOc1ccc2[nH]nc(-c3ccnc(N4CC(O)(C(F)(F)F)C4)c3)c2c1 [Example 361],< 0.0006,
CCOc1ccc2[nH]nc(-c3ccnc(N4CCN(C)CC4)c3)c2c1 [Example 362],0.01,
OCCOc1ccc2[nH]nc(-c3ccnc(N4CCOCC4)c3)c2c1 [Example 363],0.0093,
CC(C)Oc1cc2c(-c3ccnc(N4CCOCC4)c3)n[nH]c2cc1F [Example 364],0.0019,
COc1ccncc1-c1ccc2[nH]nc(-c3ccnc(N4CCOCC4=O)c3)c2c1 [Example 365],0.017,
COc1ccnc(F)c1-c1ccc2[nH]nc(-c3ccnc(N4CCN(S(C)(=O)=O)CC4)c3)c2c1 [Example 366],< 0.0006,
COc1ccnc(F)c1-c1ccc2[nH]nc(-c3ccnc(N4CCN(C(C)=O)CC4)c3)c2c1 [Example 367],< 0.0006,
COCCOc1ccc2[nH]nc(-c3ccnc(N4CCN(C)C(=O)C4)c3)c2c1 [Example 368],0.03,
CS(=O)(=O)c1ccc2[nH]nc(-c3ccnc(N4CCOCC4)c3)c2c1 [Example 369],0.109,
O=S(=O)(c1ccc2[nH]nc(-c3ccnc(N4CCOCC4)c3)c2c1)C1CC1 [Example 370],0.018,
CCS(=O)(=O)c1ccc2[nH]nc(-c3ccnc(N4CCOCC4)c3)c2c1 [Example 371],0.048,
CS(=O)(=O)Cc1cc2c(-c3ccnc(N4CCOCC4)c3)n[nH]c2cc1F [Example 372],1.21,
c1cc(-c2n[nH]c3ccc(OCC4CC4)cc23)cc(N2CCOCC2)n1 [Example 373],0.084,
FC(F)(F)Oc1ccc2[nH]nc(-c3ccnc(N4CCOCC4)c3)c2c1 [Example 374],0.028,
Cn1cc(-c2ccc3[nH]nc(-c4ccnc(N5CC(O)C5)c4)c3c2)cn1 [Example 375],< 0.0006,
COCCOc1ccc2[nH]nc(-c3ccnc(N4CCOCC4)c3)c2c1 [Example 377],0.07,

SMILES,"IC50 [1, 7] [µM]",other results
CC(C)Oc1ccc2[nH]nc(-c3ccnc(N4CCOC5(CC5)C4)c3)c2c1 [Example 378],0.0075,
Cn1cc(-c2ccc3[nH]nc(-c4ccnc(N5CCOC6(CC6)C5)c4)c3c2)cn1 [Example 379],0.0042,
Cn1cc(-c2ccc3[nH]nc(-c4ccnc(N5CC6CCC(C5)O6)c4)c3c2)cn1 [Example 380],0.0019,
CC(C)Oc1ccc2[nH]nc(-c3ccnc(N4CCC(CCN)CC4)c3)c2c1 [Example 382],0.0068,
CC(C)Oc1ccc2[nH]nc(-c3ccnc(N4CCN(C)CC4)c3)c2c1 [Example 383],0.00075,"IC50 [2]: 0.022 µM; inhibition at 0.1 µM (kinases (Table B) [3]): 10%; inhibition at 0.1 µM (kinases (Table B) [4]): 8%; inhibition at 0.1 µM (kinases (Table B) [5]): 8%; percent inhibition CDK1/cyclin B (kinases (Table B) [6]; CDK1/cyclin B, Z-LYTE): 5%; percent inhibition CLK2 (kinases (Table B) [6]; CLK2, Z-LYTE): 26%; percent inhibition IRAK1 (kinases (Table B) [6]; IRAK1, Adapta): 2%; percent inhibition JAK3 (kinases (Table B) [6]; JAK3, Z-LYTE): 7%"
CC(C)Oc1ccc2[nH]nc(-c3ccnc(N4CCN(C)C(C)C4)c3)c2c1 (stereo not shown) [Example 384],0.0022,
CC(C)Oc1ccc2[nH]nc(-c3ccnc(N4CCN(S(C)(=O)=O)C(C)C4)c3)c2c1 (stereo not shown) [Example 385],0.0022,
CC(C)Oc1ccc2[nH]nc(-c3ccnc(N4CCN(C(=O)C5CC5)C(C)C4)c3)c2c1 (stereo not shown) [Example 386],0.0028,
c1cc(-c2n[nH]c3ccc(C4CC4)cc23)cc(N2CCOCC2)n1 [Example 387],0.006,
COc1nccnc1-c1ccc2[nH]nc(-c3ccnc(N4CCOCC4)c3)c2c1 [Example 388],0.038,
Oc1nccnc1-c1ccc2[nH]nc(-c3ccnc(N4CCOCC4)c3)c2c1 [Example 389],< 0.0006,
Fc1ccc2[nH]nc(-c3ccnc(N4CCOCC4)c3)c2c1 [Example 391],0.061,
Fc1ccc2c(-c3ccnc(N4CCOCC4)c3)n[nH]c2c1 [Example 392],0.032,
COC(=O)c1ccc2[nH]nc(-c3ccnc(N4CCOCC4)c3)c2c1 [Example 393],0.015,
c1cc(-c2n[nH]c3cc4c(cc23)OCCO4)cc(N2CCOCC2)n1 [Example 394],0.012,
CC(C)Oc1ccc2[nH]nc(-c3ccnc(NS(C)(=O)=O)c3)c2c1 [Example 395],0.02,
FC(F)n1cc(-c2ccc3[nH]nc(-c4ccnc(N5CCOCC5)c4)c3c2)cn1 [Example 396],0.0028,
Cc1cc2[nH]nc(-c3ccnc(N4CCOCC4)c3)c2cc1OC(C)C [Example 397],0.167,
Oc1ccc2[nH]nc(-c3ccnc(N4C5CCC4COC5)c3)c2c1 [Example 398],0.069,
c1cc(-c2ccc3[nH]nc(-c4ccnc(N5CCOCC5)c4)c3c2)cc(N2CCOCC2)n1 [Example 399],0.074,
[2H]C1([2H])OC([2H])([2H])C([2H])([2H])N(c2cc(-c3n[nH]c4ccccc34)ccn2)C1([2H])[2H] [Example 401],,"IC50 [1, 8]: 0.027 µM"
c1ccc2c(-c3ccnc(N4CC5CCC(C4)O5)c3)n[nH]c2c1 [Example 402],,"IC50 [1, 8]: 0.027 µM"
